Results on 7 molecules are retold here after patent US7589123B2, “Chemical compounds” (Phytopharm PLC, priority 2006, dated 2009).

Data set [1] has as its system histamine-induced contractions in guinea pig ileum. Put plainly: Inhibition of histamine-induced contractions in guinea pig ileum (Assay 3). The note with it: Cavia porcellus, histamine 1.7 μM, read-out: Inhibition of histamine-induced contraction (%). A digest of the protocol:
(§1)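 Isolated male guinea pig ileum strips in Krebs at 32° C, pH 7.4, 1 g resting tension, isotonic recording. Contraction to test compound (3 and 30 μM) alone recorded, then inhibition of responses to histamine 1.7 μM or 5-HT 2.6 μM (~EC60-70, 5 min) measured in its continued presence.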

The test system of data set [2] is 5-HT-induced contractions in guinea pig ileum. Put plainly: Inhibition of 5-HT-induced contractions in guinea pig ileum (Assay 3). The note with it: Cavia porcellus, 5-HT 2.6 μM, read-out: Inhibition of 5-HT-induced contraction (%). A digest of the protocol: as §1
The subject of data set [3] is α-smooth muscle actin (α-SMA) mRNA. Briefly: Anti-remodelling activity in human lung fibroblasts (HFL1): TGFβ-induced α-SMA mRNA (Assay 4). Format: cell-based. The note with it: Homo sapiens, HFL1 cells, TGFβ 10 ng/ml, 24 h, read-out: Inhibition of α-SMA mRNA synthesis (%). The gist of the method: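 Real-time RT-PCR of α-SMA mRNA, GAPDH as reference, measured after 24 h exposure of low-serum-primed HFL1 cells to 10 ng/ml TGFβ with test compounds (3 and 30 μM) in 10% FBS medium. Readout is inhibition of TGFβ-driven α-SMA mRNA overexpression.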

Data set [4] has as its system IL-1α-induced PGE2 release. Put plainly: IL-1α-induced PGE2 release in human diploid lung fibroblasts (WI-38) (Assay 5). It is filed as cell-based. The settings on record: Homo sapiens, WI-38 cells, IL-1α 1 nM, overnight. A digest of the protocol: (§2)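 WI-38 fibroblasts stimulated overnight at 37 °C with 1 nM IL-1α plus test compound at 3 and 30 μM in MEM with 10% FBS, pH 7.3; released PGE2 in supernatant quantified by radioimmunoassay as percent inhibition. Viability then checked by Alamar Blue, 4 h at 37 °C, fluorescence ex 530/em 590 nm.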

In the next data set the test system is WI-38 cells. Put plainly: Viability of WI-38 cells, Alamar Blue (Assay 5). It is filed as cell-based, human. A digest of the protocol:
as §2
A general note: Resazurin is reduced to fluorescent resorufin, in cell work by metabolically active cells.

In a further data set the target is T1, 5-lipoxygenase (Homo sapiens, UniProt P09917).
T1 construct: endogenous in cells; host or cells: human peripheral blood mononuclear leukocytes (PBMLs)
T1 sequence (P09917 1-674): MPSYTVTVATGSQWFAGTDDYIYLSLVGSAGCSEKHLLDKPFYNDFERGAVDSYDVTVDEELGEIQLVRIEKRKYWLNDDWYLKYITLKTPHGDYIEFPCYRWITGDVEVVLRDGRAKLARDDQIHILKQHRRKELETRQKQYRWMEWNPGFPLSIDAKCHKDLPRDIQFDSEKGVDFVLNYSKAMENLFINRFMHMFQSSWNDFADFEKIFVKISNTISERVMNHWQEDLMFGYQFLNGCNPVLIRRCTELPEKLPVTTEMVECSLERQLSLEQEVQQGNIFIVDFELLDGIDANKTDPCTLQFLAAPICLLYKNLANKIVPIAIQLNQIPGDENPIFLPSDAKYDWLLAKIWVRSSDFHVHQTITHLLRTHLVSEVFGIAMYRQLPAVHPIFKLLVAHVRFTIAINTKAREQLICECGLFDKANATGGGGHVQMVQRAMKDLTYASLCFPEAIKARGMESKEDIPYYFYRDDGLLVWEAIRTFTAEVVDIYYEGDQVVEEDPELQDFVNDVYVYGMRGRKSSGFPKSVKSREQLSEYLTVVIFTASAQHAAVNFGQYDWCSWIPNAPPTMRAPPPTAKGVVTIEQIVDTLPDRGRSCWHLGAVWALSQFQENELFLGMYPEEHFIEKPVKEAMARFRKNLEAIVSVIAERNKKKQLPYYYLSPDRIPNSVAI
Briefly: 5-lipoxygenase activity (LTB4) in human peripheral blood mononuclear leukocytes (Assay 6). The note with it: human PBMLs, A23187 30 μM, read-out: Inhibition of 5-LO (%). Format: cell-based. The gist of the method:
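Human PBMLs (5×10^6 cells, Ficoll-isolated) stimulated with 30 μM A23187 plus compound at 3 or 30 μM or 0.1% DMSO in HBSS pH 7.4, 37° C., 15 min. After NaOH neutralisation and centrifugation, supernatant LTB4 measured by enzyme immunoassay.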

In another data set the target is TRPV1 receptor (Rattus norvegicus, UniProt O35433). Put plainly: TRPV1 modulation in DRG neurones: CGRP release in absence and presence of capsaicin (Assay 2). It is filed as cell-based. Further details: The culture used for this experiment contained sensory neurones, Schwann cells and fibroblasts; endogenous in cells; host or cells: primary rat DRG sensory neurone culture (with Schwann cells and fibroblasts). The settings on record: 20 min; for inhibition at 3 µM: 3 μM with capsaicin 1 μM; for inhibition at 3 µM / inhibition at 30 µM: −ve: inhibition, +ve: potentiation of capsaicin response, read-out: Effect of test compounds on capsaicin (1 μM)-induced CGRP release (%); for inhibition at 30 µM: 30 μM with capsaicin 1 μM; for Emax at 3 µM: test compound alone 3 μM; for Emax at 3 µM / Emax at 30 µM: rat DRG sensory neurones, read-out: CGRP release (% of capsaicin (1 μM) response); for Emax at 30 µM: test compound alone 30 μM.
TRPV1 receptor, sequence (O35433 whole entry): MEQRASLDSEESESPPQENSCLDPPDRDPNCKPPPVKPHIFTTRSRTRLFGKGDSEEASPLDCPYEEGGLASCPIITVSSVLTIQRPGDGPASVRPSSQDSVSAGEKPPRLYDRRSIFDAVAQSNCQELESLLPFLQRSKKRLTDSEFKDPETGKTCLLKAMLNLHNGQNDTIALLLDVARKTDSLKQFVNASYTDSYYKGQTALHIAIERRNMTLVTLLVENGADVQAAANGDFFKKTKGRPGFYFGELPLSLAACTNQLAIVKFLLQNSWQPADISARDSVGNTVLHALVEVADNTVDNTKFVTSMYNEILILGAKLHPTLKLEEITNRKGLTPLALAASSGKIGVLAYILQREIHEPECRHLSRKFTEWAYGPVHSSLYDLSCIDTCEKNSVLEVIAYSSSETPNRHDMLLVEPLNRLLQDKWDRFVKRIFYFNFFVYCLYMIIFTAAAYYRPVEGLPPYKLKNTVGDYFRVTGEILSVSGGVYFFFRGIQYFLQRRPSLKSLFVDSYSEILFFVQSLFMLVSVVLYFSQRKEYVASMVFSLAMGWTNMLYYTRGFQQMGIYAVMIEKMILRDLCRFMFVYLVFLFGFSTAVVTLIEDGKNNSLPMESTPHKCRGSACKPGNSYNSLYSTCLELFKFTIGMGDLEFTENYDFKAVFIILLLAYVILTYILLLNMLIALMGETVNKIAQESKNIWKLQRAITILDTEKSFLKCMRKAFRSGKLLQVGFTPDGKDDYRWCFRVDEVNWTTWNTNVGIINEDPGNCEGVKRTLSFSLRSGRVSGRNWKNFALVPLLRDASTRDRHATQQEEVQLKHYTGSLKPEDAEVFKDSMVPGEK

For the molecule `COc1cc(CCC(=O)CC(=O)C(c2ccccc2)c2ccccc2)ccc1O` [Compound 30, 6-(4-Hydroxy-3-methoxyphenyl)-1,1-diphenyl-hexane-2,4-dione], the inhibition at 3 µM was determined as 8% in data set [1]; 6% in data set [2]; 84% in data set [3]; 46% in data set [4]; 50% at 5-lipoxygenase; 49% at TRPV1 receptor. The inhibition at 30 µM is 89% in data set [1]; 100% in data set [3]; 99% in data set [4]; 99% at 5-lipoxygenase; -150% at TRPV1 receptor. Also, the “Decrease in cell viability (%)” value with WI-38 cells (3 μM) is −10%; with WI-38 cells (30 μM) it was 29%. The Emax at 3 µM on TRPV1 receptor was determined as 70%. Further, at TRPV1 receptor, the Emax at 30 µM stood at 122%.
Regarding `COc1cc(CCC(=O)CC(=O)c2ccc(Cl)cc2)ccc1O` [Compound 21, 1-(4-Chlorophenyl)-5-(4-hydroxy-3-methoxyphenyl)pentane-1,3-dione], the inhibition at 3 µM was found to be 9% in data set [1]; 9% in data set [2]; 6% in data set [3]; 88% in data set [4]; 68% at 5-lipoxygenase; 6% at TRPV1 receptor. The inhibition at 30 µM in data set [1] is 68%; in data set [2] it was 49%; in data set [3] it was 54%; in data set [4], 99%; on 5-lipoxygenase, 98%; at TRPV1 receptor, -56%. The “Decrease in cell viability (%)” value in the data set on WI-38 cells (3 μM) is 3%; in the data set on WI-38 cells (30 μM), 11%. Moreover, the Emax at 3 µM at TRPV1 receptor was 50%. In addition, the Emax at 30 µM on TRPV1 receptor was determined as 150%.
Regarding `COc1cc(CCC(=O)CC(=O)c2ccccc2C)ccc1O` [Compound 84, 5-(4-Hydroxy-3-methoxyphenyl)-1-o-tolylpentane-1,3-dione], the inhibition at 3 µM in data set [1] was determined as 19%; in data set [2] it was 22%; in data set [3] it was 6%; in data set [4], 101%; on 5-lipoxygenase, 77%; at TRPV1 receptor it was 32%. Moreover, the inhibition at 30 µM in data set [1] is 66%; in data set [2] it was 100%; in data set [3], 65%; in data set [4], 102%; on 5-lipoxygenase, 98%; at TRPV1 receptor, 26%. Further, the “Decrease in cell viability (%)” value with WI-38 cells (3 μM) was found to be 3%; in the data set on WI-38 cells (30 μM), 12%. The Emax at 3 µM at TRPV1 receptor is 54%. Further, the Emax at 30 µM on TRPV1 receptor is 74%.
With `COc1cc(CCC(=O)C(C)C(=O)c2ccc(C)cc2)ccc1O` (stereo not drawn) [Compound 14, 5-(4-Hydroxy-3-methoxylphenyl)-2-methyl-1-p-tolyl-pentane-1,3-dione], the inhibition at 3 µM in data set [1] is 10%; in data set [2] it was 10%; in data set [3], 11%; in data set [4], 77%; at 5-lipoxygenase, 57%; on TRPV1 receptor, -12%. Moreover, the inhibition at 30 µM was determined as 54% in data set [1]; 74% in data set [2]; 17% in data set [3]; 101% in data set [4]; 96% at 5-lipoxygenase; 35% at TRPV1 receptor. Further, the “Decrease in cell viability (%)” value with WI-38 cells (3 μM) is recorded as 5%; in the data set on WI-38 cells (30 μM), −4%. For the same molecule, on TRPV1 receptor, the Emax at 3 µM worked out at 120%. The Emax at 30 µM on TRPV1 receptor worked out at 94%.
Regarding `COc1cc(CCC(=O)CC(=O)c2ccc(Cl)cc2C)ccc1O` [Compound 76, 1-(4-Chloro-2-methylphenyl)-5-(4-hydroxy-3-methoxyphenyl)pentane-1,3-dione], the inhibition at 3 µM in data set [1] is 9%; in data set [2], 26%; in data set [3], -1%; in data set [4] it was 99%; on 5-lipoxygenase, 74%; on TRPV1 receptor it was 9%. The inhibition at 30 µM in data set [1] worked out at 81%; in data set [2], 72%; in data set [3] it was 94%; in data set [4], 101%; at 5-lipoxygenase, 99%; at TRPV1 receptor it was 4%. Moreover, the “Decrease in cell viability (%)” value with WI-38 cells (3 μM) is listed as 4%; in the data set on WI-38 cells (30 μM), 26%. At TRPV1 receptor, the Emax at 3 µM was 55%. For the same molecule, the Emax at 30 µM at TRPV1 receptor was found to be 107%.
`COc1cc(CCC(=O)C(C)C(=O)c2ccc(O)c(OC)c2)ccc1O` (stereo not drawn) [Compound 16, 1,5-Bis(4-hydroxy-3-methoxyphenyl)-2-methyl-pentane-1,3-dione]: the inhibition at 3 µM in data set [1] was 4%; in data set [2] it was 0%; in data set [3] it was -8%; in data set [4], 32%; on 5-lipoxygenase, 20%; at TRPV1 receptor it was -49%. Also, the inhibition at 30 µM in data set [1] was 22%; in data set [2] it was 28%; in data set [3], 10%; in data set [4], 83%; on 5-lipoxygenase, 73%; on TRPV1 receptor, -49%. Besides, the “Decrease in cell viability (%)” value in the data set with WI-38 cells (3 μM) is listed as 10%; with WI-38 cells (30 μM), −9%. Further, the Emax at 3 µM on TRPV1 receptor was 53%. The Emax at 30 µM on TRPV1 receptor amounted to 52%.
As to `COc1cc(CCC(=O)CC(=O)c2cccc(Cl)c2)ccc1O` [Compound 22, 1-(3-Chlorophenyl)-5-(4-hydroxy-3-methoxyphenyl)pentane-1,3-dione], the inhibition at 3 µM is 11% in data set [1]; 18% in data set [2]; -5% in data set [3]; 93% in data set [4]; 62% at 5-lipoxygenase; 2% at TRPV1 receptor. The inhibition at 30 µM was 65% in data set [1]; 94% in data set [2]; 25% in data set [3]; 100% in data set [4]; 98% on 5-lipoxygenase; -58% at TRPV1 receptor. Besides, the “Decrease in cell viability (%)” value with WI-38 cells (3 μM) turned out to be 3%; in the data set with WI-38 cells (30 μM), 9%. Further, the Emax at 3 µM on TRPV1 receptor turned out to be 60%. Besides, the Emax at 30 µM on TRPV1 receptor came to 163%.
